Source: ChEMBL document CHEMBL1150271, “Corymbones A and B, phloroglucinols with thyrotropin releasing hormone receptor 2 binding affinity from the flowers of Corymbia peltata” (J Nat Prod, 2008)
Calls of active or inactive are those of the source. The calls are words filed in the database; no cut-off is given here.

How the values were obtained:
[1] = target: T1, Thyrotropin-releasing hormone receptor 2 (Rattus norvegicus, UniProt A6IZR3); experiment: Displacement of [3H]3-methylhistidyl-TRH from rat recombinant TRH2 receptor expressed in […] cells; format: cell-based
T1 sequence (A6IZR3 whole entry): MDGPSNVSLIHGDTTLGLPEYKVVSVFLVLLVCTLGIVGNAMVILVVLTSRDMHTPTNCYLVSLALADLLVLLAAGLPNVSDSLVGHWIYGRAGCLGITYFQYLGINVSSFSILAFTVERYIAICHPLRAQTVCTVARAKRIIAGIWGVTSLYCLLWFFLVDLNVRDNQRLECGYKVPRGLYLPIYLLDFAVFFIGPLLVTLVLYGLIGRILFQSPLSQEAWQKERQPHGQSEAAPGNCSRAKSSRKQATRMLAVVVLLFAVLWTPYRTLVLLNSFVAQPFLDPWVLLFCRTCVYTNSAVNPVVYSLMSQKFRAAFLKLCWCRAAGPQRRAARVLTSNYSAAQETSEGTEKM

[2] = target: T2, Thyrotropin-releasing hormone receptor 2 (Rattus norvegicus) (UniProt A6IZR3); experiment: Displacement of [3H]3-methylhistidyl-TRH from rat recombinant TRH2 receptor expressed in […] cells up to 1 mM; format: cell-based
T2 sequence (whole entry): T1 sequence (A6IZR3 whole entry)

IC50 [1] [µM]	Activity [2]	Compound
23		Cc1c(O)c(C(=O)CCc2ccccc2)c(O)c(C(CCc2ccccc2)C2=C(O)C(C)(C)C(=O)C(C)(C)C2=O)c1O (centres undefined) [CORYMBONE A]
23		NC(=O)[C@@H]1CCCN1C(=O)[C@H](Cc1cnc[nH]1)NC(=O)[C@@H]1CCC(=O)N1 [PROTIRELIN]
	inactive	Cc1c(O)cc(O)c(C(=O)CCc2ccccc2)c1O
19		Cc1c(O)c(C(=O)CCc2ccccc2)c(O)c(C(CC(C)C)C2=C(O)C(C)(C)C(=O)C(C)(C)C2=O)c1O (centres undefined) [CORYMBONE B]
